Results: US20230264009A1, “DISINFECTING CAP KIT FOR LUER ACCESS DEVICES” (SterileCare Inc., priority 2022, published 2023)

Columns and labels:
[1] = test system: MRSA ON184; experiment: MBC/MFC determination; assay type: cell-based, Staphylococcus aureus; conditions: alone
Protocol: (§1) An assay was made using a minimum inhibitory concentration (MIC) and minimum bactericidal concentration (MBC) and minimum fungicidal concentration (MFC) determination. The MIC was determined by the micro broth dilution method in 96-well plates. Serial two-fold dilutions of tetrasodium EDTA (from 2% to 0.015%), ethanol (from 50% to 0.1%) and chlorhexidine HCl (from 100 µg/mL to 0.025 µg/mL) were prepared in MH broth with a final volume of 90 µL per well. A 10 µL containing 1 × 10^5 bacterial cells or 2 × 10^3 fungal cells were added to each well. The inoculated plates were covered with a lid, sealed with Parafilm, and incubated for 24 h at 37° C. with slight rocking on a tilting platform shaker. After incubation, the optical density at 600 nm (OD 600 ) of the cultures in each well was measured using an xMark™ Microplate Absorbance Spectrophotometer (Bio-Rad). […] MBCs and MFCs were determined by transferring 100 µL from each well with no apparent growth onto appropriate agar plates, followed by incubation for 24 h at 37° C.

[2] = test system: E. coli SK2; experiment: MBC/MFC determination; assay type: cell-based, Escherichia coli; conditions: alone
Protocol: as §1

[3] = test system: Candida albicans SK4b; experiment: Checkerboard titration, FMCI; assay type: cell-based; conditions: C. albicans SK4b
Protocol: as §1
(§2) A fourth composition and solution included tetrasodium EDTA with ethanol or chlorhexidine HCl. This fourth composition and solution were created using checkerboard titration methods using micro broth dilution in 96-well microtiter plates. The concentrations of antimicrobials used were based on previously determined MIC values. Briefly, 200 µL of two-fold dilutions of tetrasodium EDTA and ethanol or chlorhexidine HCl were prepared in MH or MH II broth with standardized cell suspension. […] Microtiter plates were incubated at 37° C. for 24 h, and the results were analyzed. Each test was performed in duplicate and included a growth control without adding any antimicrobials.

[4] = test system: Escherichia coli ON29; experiment: Checkerboard titration, FMCI; assay type: cell-based; conditions: E. coli ON29
Protocol: as §1, §2

[5] = test system: Proteus mirabilis ON153; experiment: Checkerboard titration, FMCI; assay type: cell-based; conditions: P. mirabilis ON153
Protocol: as §1, §2

[6] = test system: Pseudomonas aeruginosa SK1; experiment: Checkerboard titration, FMCI; assay type: cell-based; conditions: P. aeruginosa SK1
Protocol: as §1, §2

[7] = test system: Serratia marcescens SK2; experiment: Checkerboard titration, FMCI; assay type: cell-based; conditions: S. marcescens SK2
Protocol: as §1, §2

[8] = test system: Staphylococcus aureus ON89; experiment: Checkerboard titration, FMCI; assay type: cell-based; conditions: S. aureus ON89
Protocol: as §1, §2

[9] = test system: Staphylococcus epidermidis ON170; experiment: Checkerboard titration, FMCI; assay type: cell-based; conditions: S. epidermidis ON170
Protocol: as §1, §2

[10] = test system: Stenotrophomonas maltophilia ON17; experiment: Checkerboard titration, FMCI; assay type: cell-based; conditions: S. maltophilia ON17
Protocol: as §1, §2

[11] = test system: Pseudomonas aeruginosa SK1 biofilm; experiment: FBEC index, checkerboard dilution on biofilms; assay type: cell-based; conditions: P. aeruginosa SK1 biofilm
Protocol: (§3) In step (4), microtiter plates are incubated at 37° C. for 24 h. then (6), after incubation, the bacterial and fungal cells were dislodged from the pegs into the recovery medium described above.
(§4) Three 10-µL aliquots, for a total of 30 µL from each well of recovery medium, were spotted on MH agar plates and incubated for 24 h at 37° C. […] The FBEC determination is a modification of the FICI.

[12] = test system: Escherichia coli SK2 biofilm; experiment: FBEC index, checkerboard dilution on biofilms; assay type: cell-based; conditions: E. coli SK2 biofilm
Protocol: as §3, §4

[13] = test system: Candida albicans SK4b biofilm; experiment: FBEC index, checkerboard dilution on biofilms; assay type: cell-based; conditions: C. albicans SK4b biofilm
Protocol: as §3, §4

[14] = test system: C. albicans ON47 biofilm; experiment: FBEC index, checkerboard dilution on biofilms; assay type: cell-based, Candida albicans
Protocol: as §3, §4

[15] = test system: 48-h old biofilms of test organisms; experiment: Rapid biofilm eradication, 2 h exposure; assay type: cell-based; conditions: alone at the MBEC
Protocol: Determining rapid biofilm eradication by tetrasodium EDTA, ethanol, and chlorhexidine HCl alone and in combination was performed. After biofilm formation, control pegs (n = 6) were removed and analyzed to determine the starting biofilm cell numbers via the drop dilution method. The 48-h old biofilms on the pegs were exposed to different concentrations of test antimicrobials, dissolved in an appropriate growth medium, for two h to evaluate their efficacy alone and in combination. Antimicrobial solutions tested against each organism included each agent alone at the MBEC, double combinations at the FBEC, and triple combinations ranging from 5 to 20% ethanol, 2.5-5 µg/mL chlorhexidine HCl and 1- 3% tetrasodium EDTA. Following treatment, pegs were washed twice with sterile PBS, and the biofilm cells were dislodged into recovery medium and enumerated as described above.
The method for rapid biofilm eradication ability of test antimicrobials alone and in combination against 48-h-old biofilms within two h exposure time included (1) choosing different concentrations of test antimicrobials to assess their potency in eradicating preformed biofilms of study organisms within two h. Then (2) the quantitative recovery from biofilms following exposure to the antimicrobial solutions for bacterial strains (FIGS. 6A-6C) and fungal strains (FIG. 7) was evaluated.

[16] = tetrasodium EDTA + chlorhexidine HCl

Structure (SMILES): O=C([O-])CN(CCN(CC(=O)[O-])CC(=O)[O-])CC(=O)[O-].[Na+].[Na+].[Na+].[Na+] [EDTA, tetrasodium EDTA]
- MBC/MFC [1]: 2 % w/v
- MBC/MFC [2]: 0.5 % w/v
- Concentration in combination giving FMCI [3, 16]: 0.125 % w/v
- Concentration in combination giving FMCI ([3]; tetrasodium EDTA + ethanol): 0.25 % w/v
- Concentration in combination giving FMCI [4, 16]: 0.008 % w/v
- Concentration in combination giving FMCI ([4]; tetrasodium EDTA + ethanol): 0.25 % w/v
- Concentration in combination giving FMCI [5, 16]: 0.125 % w/v
- Concentration in combination giving FMCI ([5]; tetrasodium EDTA + ethanol): 0.063 % w/v
- Concentration in combination giving FMCI [6, 16]: 0.031 % w/v
- Concentration in combination giving FMCI ([6]; tetrasodium EDTA + ethanol): 0.031 % w/v
- Concentration in combination giving FMCI [7, 16]: 0.125 % w/v
- Concentration in combination giving FMCI ([7]; tetrasodium EDTA + ethanol): 0.25 % w/v
- Concentration in combination giving FMCI [8, 16]: 0.008 % w/v
- Concentration in combination giving FMCI ([8]; tetrasodium EDTA + ethanol): 0.25 % w/v
- Concentration in combination giving FMCI [9, 16]: 0.25 % w/v
- Concentration in combination giving FMCI ([9]; tetrasodium EDTA + ethanol): 0.031 % w/v
- Concentration in combination giving FMCI [10, 16]: 0.031 % w/v
- Concentration in combination giving FMCI ([10]; tetrasodium EDTA + ethanol): 0.125 % w/v
- FBEC (concentration in combination) [11, 16]: 0.25 % w/v
- FBEC (concentration in combination) ([11]; tetrasodium EDTA + ethanol): 0.125 % w/v
- FBEC (concentration in combination) [12, 16]: 0.031 % w/v
- FBEC (concentration in combination) ([12]; tetrasodium EDTA + ethanol): 0.125 % w/v
- FBEC (concentration in combination) [13, 16]: 0.063 % w/v
- FBEC (concentration in combination) ([13]; tetrasodium EDTA + ethanol): 0.125 % w/v
- FBEC (concentration in combination) [14, 16]: 0.031 % w/v
- FBEC (concentration in combination) ([14]; tetrasodium EDTA + ethanol): 0.125 % w/v
- Eradication of preformed biofilms [15]: failed to eradicate
